Here are results for 22 compounds from patent US11919902B2, “Aryl-bipyridine amine derivatives as phosphatidylinositol phosphate kinase inhibitors” (HiberCell, Inc., priority 2017, dated 2024).

Several values for one entry are separate records, joined by “and”; a condition that tells them apart may be missing. Equal entries are not always repeated. Where only a bound is given, the exact number is not on record here.

The target of assay [1] is T1, GST tagged PIP4KtypeIIA (Homo sapiens, UniProt P48426).
T1 construct: made in house; host or cells: E. coli
T1 sequence (P48426 1-406): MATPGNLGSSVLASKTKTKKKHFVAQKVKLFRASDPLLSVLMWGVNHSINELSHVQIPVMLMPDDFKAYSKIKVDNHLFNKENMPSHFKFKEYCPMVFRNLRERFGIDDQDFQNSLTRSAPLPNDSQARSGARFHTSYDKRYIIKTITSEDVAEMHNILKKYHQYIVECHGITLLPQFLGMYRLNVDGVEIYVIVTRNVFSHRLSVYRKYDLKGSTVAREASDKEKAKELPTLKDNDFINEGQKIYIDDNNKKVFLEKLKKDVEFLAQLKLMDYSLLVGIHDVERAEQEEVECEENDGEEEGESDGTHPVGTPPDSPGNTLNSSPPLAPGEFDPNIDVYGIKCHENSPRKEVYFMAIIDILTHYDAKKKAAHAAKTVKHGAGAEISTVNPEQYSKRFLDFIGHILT
Put plainly: ADP-glo kinase assay PIP4K 2A (PIP4KtypeIIA inhibition assay). The format is biochemical. Conditions: Table 3; compounds listed under IC50 range headings; 10 uM ATP, 0.5 nM PIP4KIIA. An outline of the steps: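 Read-out was ADP-Glo luminescence converted to μM ADP, with IC50 plotted as % of no-inhibitor activity against log concentration. Reactions contained 10 μM ATP, 80 μM PI5P with DOPE carrier, and 0.5 nM GST-tagged PIP4KIIA (E. coli-expressed) in pH 7.3 HEPES/MgCl2 buffer with 5% DMSO. Enzyme and compound (≤4.8 μM) were preincubated 1 h at 27 °C before the 1 h reaction.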

Assay [2] concerns the target T2, GST tagged PIP4KtypeIIB (Homo sapiens, UniProt P78356).
T2 construct: made in house; host or cells: E. coli
T2 sequence (P78356 1-416): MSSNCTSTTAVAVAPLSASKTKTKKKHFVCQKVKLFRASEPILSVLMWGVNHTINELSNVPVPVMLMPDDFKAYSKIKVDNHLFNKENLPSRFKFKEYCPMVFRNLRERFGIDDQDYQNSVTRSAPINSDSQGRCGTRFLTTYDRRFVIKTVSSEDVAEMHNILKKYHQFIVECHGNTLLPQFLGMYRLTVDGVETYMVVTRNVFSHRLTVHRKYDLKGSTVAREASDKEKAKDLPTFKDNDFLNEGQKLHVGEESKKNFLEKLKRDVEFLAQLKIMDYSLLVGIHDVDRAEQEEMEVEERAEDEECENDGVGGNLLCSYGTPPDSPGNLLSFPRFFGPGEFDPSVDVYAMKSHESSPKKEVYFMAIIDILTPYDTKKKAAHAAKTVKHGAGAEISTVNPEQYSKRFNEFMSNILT
Kind of assay: Trans-FI P kinase assay PIP4K2B (PIP4KtypeIIB inhibition assay). Format: biochemical. Conditions: Table 4; compounds listed under IC50 range headings; 100 uM GTP, 5 nM PIP4KIIB; read-out: Trans-FI P kinase assays: PIP4K2B IC50. An outline of the steps:
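Transcreener FI fluorescence, converted to GDP by calibration, tracked product from 5 nM E. coli-expressed GST-PIP4KIIB acting on 80 uM PI5P (DOPE carrier) with 100 uM GTP. Compound (top 4.8 uM final, 5% DMSO) was preincubated 1 h at 27 C before the 2 h reaction; IC50 fitted from residual activity.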

Take `CN(C)C(=O)c1ccc(-c2cc(-c3ccnc4[nH]c(C(=O)N5CCCC5)cc34)cnc2N)nc1` [Example 141, 2′-amino-N,N-dimethyl-5′-(2-(pyrrolidine-1-carbonyl)-1H-pyrrolo[2,3-b]pyridin-4-yl)-[2,3′-bipyridine]-5-carboxamide]: the concentration for half-maximal inhibition (IC50) lay within 100 to 1000 nM in assay [1] and 10 to 100 nM in assay [2].

On to `CN1CCn2c(cc3c(-c4cncc(-c5ccc(N6C(=O)Cc7ccccc76)cc5)c4)ccnc32)C1=O` [Example 202, 7-methyl-4-(5-(4-(2-oxoindolin-1-yl)phenyl)pyridin-3-yl)-8,9-dihydropyrido[3′,2′:4,5]pyrrolo[1,2-a]pyrazin-6(7H)-one], for which the 50% inhibitory concentration (IC50) in assay [1] and in assay [2] was more than 5000 nM each time.

Take `O=C1CCCN1c1ccc(-c2cncc(-c3n[nH]c4ncc(C5CC5)cc34)c2)cc1` [Example 283, 1-(4-(5-(5-cyclopropyl-1H-pyrazolo[3,4-b]pyridin-3-yl)pyridin-3-yl)phenyl)pyrrolidin-2-one]: the IC50 in assay [1] and in assay [2] was 10 to 100 nM each time.

Regarding `CN(C)C(=O)c1ccc(-c2cc(-c3ccnc4[nH]c(C(=O)N[C@H]5COC[C@H]5N)cc34)cnc2N)nc1` [Example 226, 4-(2′-amino-5-(dimethylcarbamoyl)-[2,3′-bipyridin]-5′-yl)-N-((3R,4S)-4-aminotetrahydrofuran-3-yl)-1H-pyrrolo[2,3-b]pyridine-2-carboxamide], the IC50 lay within 1000 to 2500 nM in assay [1] and 10 to 100 nM in assay [2].

Turning to `O=C(NCCc1ccncc1)c1cc2c(-c3cncc(-c4ccc(N5CCCC5=O)cc4)c3)ccnc2[nH]1` [Example 247, 4-(5-(4-(2-oxopyrrolidin-1-yl)phenyl)pyridin-3-yl)-N-(2-(pyridin-4-yl)ethyl)-1H-pyrrolo[2,3-b]pyridine-2-carboxamide], the IC50 in assay [1] fell in the range of 100 to 1000 nM; in assay [2], 10 to 100 nM.

On to `COC(=O)c1cc2c(-c3cncc(-c4ccc(N5CCCC5=O)cc4)c3)c(Cl)cnc2[nH]1` [Example 296, methyl 5-chloro-4-(5-(4-(2-oxopyrrolidin-1-yl)phenyl)pyridin-3-yl)-1H-pyrrolo[2,3-b]pyridine-2-carboxylate], for which the IC50 in assay [1] and in assay [2] was 100 to 1000 nM throughout.

`O=C(N[C@H]1C[C@H](c2ccccc2)C1)c1cc2c(-c3cncc(-c4ccc(N5CCCC5=O)cc4)c3)ccnc2[nH]1` [Example 297, 4-(5-(4-(2-oxopyrrolidin-1-yl)phenyl)pyridin-3-yl)-N-((1r,3r)-3-phenylcyclobutyl)-1H-pyrrolo[2,3-b]pyridine-2-carboxamide]: the concentration for half-maximal inhibition (IC50) in assay [1] is 1000 to 2500 nM; in assay [2], more than 5000 nM.

With `O=C(Nc1ccc(-c2cncc(-c3ccnc4[nH]ncc34)c2)cc1)C(=O)N1C2CCC1CC2` [Example 204, N-(4-(5-(1H-pyrazolo[3,4-b]pyridin-4-yl)pyridin-3-yl)phenyl)-2-(7-azabicyclo[2.2.1]heptan-7-yl)-2-oxoacetamide], the half-inhibitory concentration (IC50) was 100 to 1000 nM in assay [1] and more than 5000 nM in assay [2].

Regarding `CN(C)C(=O)c1ccc(-c2cc(-c3ccnc4[nH]c(C(=O)NC5CCOCC5)cc34)cnc2N)nc1` [Example 137, 4-(2′-amino-5-(dimethylcarbamoyl)-[2,3′-bipyridin]-5′-yl)-N-(tetrahydro-2H-pyran-4-yl)-1H-pyrrolo[2,3-b]pyridine-2-carboxamide], the IC50 in assay [1] is 100 to 1000 nM; in assay [2], 10 to 100 nM.

Consider `O=C(c1cc2c(-c3cncc(-c4ccc(N5CCCC5=O)cc4)c3)ccnc2[nH]1)N1CCCC1` [Example 235, 1-(4-(5-(2-(pyrrolidine-1-carbonyl)-1H-pyrrolo[2,3-b]pyridin-4-yl)pyridin-3-yl)phenyl)pyrrolidin-2-one], for which the IC50 in assay [1] and in assay [2] was 100 to 1000 nM in each case.

Consider `COC(=O)c1cc2c(-c3cncc(-c4ccc(N5CCCC5=O)cn4)c3)ccnc2[nH]1` [Example 248, methyl 4-(5-(2-oxopyrrolidin-1-yl)-[2,3′-bipyridin]-5′-yl)-1H-pyrrolo[2,3-b]pyridine-2-carboxylate], for which the values for the IC50 in assay [1] and in assay [2] were 1000 to 2500 nM and 100 to 1000 nM, respectively.

Regarding `C[C@H]1CC(=O)N(c2ccc(-c3cncc(-c4ccnc5c4cc4n5CCN(C)C4=O)c3)cc2)C1` [Example 199, (S)-7-methyl-4-(5-(4-(4-methyl-2-oxopyrrolidin-1-yl)phenyl)pyridin-3-yl)-8,9-dihydropyrido[3′,2′:4,5]pyrrolo[1,2-a]pyrazin-6(7H)-one], the half-maximal inhibitory concentration (IC50) lay in the range of 100 to 1000 nM in assay [1] and 10 to 100 nM in assay [2].

For the compound `O=C(c1cc2c(-c3cncc(-c4ccc(N5CCCC5=O)cc4)c3)ccnc2[nH]1)N1CCOCC1` [Example 229, 1-(4-(5-(2-(morpholine-4-carbonyl)-1H-pyrrolo[2,3-b]pyridin-4-yl)pyridin-3-yl)phenyl)pyrrolidin-2-one], the half-inhibitory concentration (IC50) in assay [1] and in assay [2] was 100 to 1000 nM throughout.

For the compound `CN(C)C(=O)c1ccc(-c2cc(-c3ccnc4[nH]c(C(=O)NCCc5ncc[nH]5)cc34)cnc2N)nc1` [Example 150, N-(2-(1H-imidazol-2-yl)ethyl)-4-(2′-amino-5-(dimethylcarbamoyl)-[2,3′-bipyridin]-5′-yl)-1H-pyrrolo[2,3-b]pyridine-2-carboxamide], the half-inhibitory concentration (IC50) lay within 100 to 1000 nM in assay [1] and 10 to 100 nM in assay [2].

On to `CN(C)C(=O)c1cc2c(-c3cncc(-c4ccc(N5CCCC5=O)cc4)c3)cn(C)c2c(=O)n1C` [Example 260, N,N,1,6-tetramethyl-7-oxo-3-(5-(4-(2-oxopyrrolidin-1-yl)phenyl)pyridin-3-yl)-6,7-dihydro-1H-pyrrolo[2,3-c]pyridine-5-carboxamide], for which the IC50 in assay [1] and in assay [2] was 100 to 1000 nM each time.

In the case of `O=C(Nc1nccc(-c2cncc(-c3ccc(N4CCCC4=O)cc3)c2)n1)C1CCC1` [Example 287, N-(4-(5-(4-(2-oxopyrrolidin-1-yl)phenyl)pyridin-3-yl)pyrimidin-2-yl)cyclobutanecarboxamide], the IC50 in assay [1] and in assay [2] was 100 to 1000 nM throughout.

Turning to `CN(C)C(=O)c1ccc(-c2cc(-c3ccnc4[nH]c(C(=O)NCC(N)=O)cc34)cnc2N)nc1` [Example 144, N-(2-amino-2-oxoethyl)-4-(2′-amino-5-(dimethylcarbamoyl)-[2,3′-bipyridin]-5′-yl)-1H-pyrrolo[2,3-b]pyridine-2-carboxamide], the 50% inhibitory concentration (IC50) is 100 to 1000 nM in assay [1] and 10 to 100 nM in assay [2].

Regarding `Cc1nc(-c2cncc(-c3ccc(N4CCCC4=O)cc3)c2)c2sc(N3CCCCC3)nc2n1` [Example 286, 1-(4-(5-(5-methyl-2-(piperidin-1-yl)thiazolo[4,5-d]pyrimidin-7-yl)pyridin-3-yl)phenyl)pyrrolidin-2-one], the results for the half-inhibitory concentration (IC50) in assay [1] and in assay [2] were 10 to 100 nM and 100 to 1000 nM, respectively.

For the compound `O=C1CCCN1c1ccc(-c2cncc(-c3c4n(c5ncc(Br)cc35)CCC4)c2)cc1` [Example 353, 1-(4-(5-(3-bromo-7,8-dihydro-6H-pyrido[3,2-b]pyrrolizin-5-yl)pyridin-3-yl)phenyl)pyrrolidin-2-one], the 50% inhibitory concentration (IC50) in assay [1] and in assay [2] was 10 to 100 nM throughout.

As for `COC(=O)c1cc2c(-c3cncc(-c4ccc(N5CCCC5=O)cc4)c3)c(C)cnc2[nH]1` [Example 290, methyl 5-methyl-4-(5-(4-(2-oxopyrrolidin-1-yl)phenyl)pyridin-3-yl)-1H-pyrrolo[2,3-b]pyridine-2-carboxylate], the IC50 in assay [1] and in assay [2] was 100 to 1000 nM throughout.

Take `O=C(Nc1ccc(-c2cncc(-c3ccnc4[nH]ncc34)c2)cc1)c1cc(C2CCC2)on1` [Example 205, N-(4-(5-(1H-pyrazolo[3,4-b]pyridin-4-yl)pyridin-3-yl)phenyl)-5-cyclobutylisoxazole-3-carboxamide]: the IC50 in assay [1] was more than 5000 nM; in assay [2], 100 to 1000 nM and > 5000 nM.

In the case of `CN(C)C(=O)c1ccc(-c2cc(-c3ccnc4[nH]c(C(=O)N5CC6(COC6)C5)cc34)cnc2N)nc1` [Example 147, 5′-(2-(2-oxa-6-azaspiro[3.3]heptane-6-carbonyl)-1H-pyrrolo[2,3-b]pyridin-4-yl)-2′-amino-N,N-dimethyl-[2,3′-bipyridine]-5-carboxamide], the IC50 in assay [1] was in the range of 100 to 1000 nM; in assay [2] it was 10 to 100 nM.
